Experimental data from the kinase profiling compilation of Christmann-Franck et al. (2016).

Tests used:
Assay in all cases: radiometric filter-binding kinase assay, Kinase HotSpot
Details in all cases: compound 0.5 µM; ATP 10 µM
ABL1 (human) = ABL1 (human) (UniProt P00519)
ACVR1 (human) = ACVR1 (human) (UniProt Q04771)
ADRBK1 (human) = ADRBK1 (human) (UniProt P25098)
ADRBK2 (human) = ADRBK2 (human) (UniProt P35626)
BRAF (human) = BRAF (human) (UniProt P15056)
CAMK1G (human) = CAMK1G (human) (UniProt Q96NX5)
CDC42BPB (human) = CDC42BPB (human) (UniProt Q9Y5S2)
CDK1 CCNB1 (human) = CDK1 CCNB1 (human) (UniProt P06493+P14635)
CHUK (human) = CHUK (human) (UniProt O15111)
DAPK3 (human) = DAPK3 (human) (UniProt O43293)
DYRK1A (human) = DYRK1A (human) (UniProt Q13627)
DYRK2 (human) = DYRK2 (human) (UniProt Q92630)
Chain of DYRK2 (human) (Q92630 whole entry, looked up): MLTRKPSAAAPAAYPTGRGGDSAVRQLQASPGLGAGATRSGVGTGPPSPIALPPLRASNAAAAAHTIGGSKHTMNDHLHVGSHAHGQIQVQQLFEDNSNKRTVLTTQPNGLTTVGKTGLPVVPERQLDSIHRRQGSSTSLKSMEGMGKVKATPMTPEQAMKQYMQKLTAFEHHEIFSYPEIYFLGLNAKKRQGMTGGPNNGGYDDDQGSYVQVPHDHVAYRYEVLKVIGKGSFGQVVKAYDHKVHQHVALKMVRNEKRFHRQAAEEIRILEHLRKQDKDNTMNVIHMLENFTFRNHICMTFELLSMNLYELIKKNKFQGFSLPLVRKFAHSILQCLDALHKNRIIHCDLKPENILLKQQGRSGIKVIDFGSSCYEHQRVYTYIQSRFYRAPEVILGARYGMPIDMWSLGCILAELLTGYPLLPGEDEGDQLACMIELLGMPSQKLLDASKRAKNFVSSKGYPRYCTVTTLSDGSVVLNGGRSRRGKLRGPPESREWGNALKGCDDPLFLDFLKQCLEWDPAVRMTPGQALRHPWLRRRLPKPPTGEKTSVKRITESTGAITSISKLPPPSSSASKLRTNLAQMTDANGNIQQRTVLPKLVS

EPHB3 (human) = EPHB3 (human) (UniProt P54753)
ERBB2 (human) = ERBB2 (human) (UniProt P04626)
FGR (human) = FGR (human) (UniProt P09769)
IKBKB (human) = IKBKB (human) (UniProt O14920)
ITK (human) = ITK (human) (UniProt Q08881)
LRRK2 (human) = LRRK2 (human) (UniProt Q5S007)
MAP2K1 (human) = MAP2K1 (human) (UniProt Q02750)
NEK6 (human) = NEK6 (human) (UniProt Q9HC98)
NEK9 (human) = NEK9 (human) (UniProt Q8TD19)
NTRK1 (human) = NTRK1 (human) (UniProt P04629)
PAK1 (human) = PAK1 (human) (UniProt Q13153)
PDPK1 (human) = PDPK1 (human) (UniProt O15530)
Chain of PDPK1 (human) (O15530 whole entry, looked up): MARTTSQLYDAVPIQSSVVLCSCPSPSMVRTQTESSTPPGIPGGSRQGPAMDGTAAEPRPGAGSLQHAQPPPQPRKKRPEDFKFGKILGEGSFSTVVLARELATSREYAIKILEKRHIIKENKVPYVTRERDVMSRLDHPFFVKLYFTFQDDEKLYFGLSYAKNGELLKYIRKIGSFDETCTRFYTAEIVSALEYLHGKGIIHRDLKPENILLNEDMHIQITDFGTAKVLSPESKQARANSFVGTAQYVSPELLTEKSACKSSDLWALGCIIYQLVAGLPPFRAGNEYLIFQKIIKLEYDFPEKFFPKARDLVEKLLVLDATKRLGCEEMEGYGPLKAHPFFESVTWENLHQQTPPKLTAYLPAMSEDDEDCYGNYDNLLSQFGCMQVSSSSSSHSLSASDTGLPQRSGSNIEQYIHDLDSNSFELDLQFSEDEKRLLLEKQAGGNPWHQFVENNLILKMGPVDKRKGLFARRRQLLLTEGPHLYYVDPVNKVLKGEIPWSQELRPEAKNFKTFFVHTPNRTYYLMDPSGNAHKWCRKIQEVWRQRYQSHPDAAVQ

PIM2 (human) = PIM2 (human) (UniProt Q9P1W9)
Chain of PIM2 (human) (Q9P1W9 whole entry, looked up): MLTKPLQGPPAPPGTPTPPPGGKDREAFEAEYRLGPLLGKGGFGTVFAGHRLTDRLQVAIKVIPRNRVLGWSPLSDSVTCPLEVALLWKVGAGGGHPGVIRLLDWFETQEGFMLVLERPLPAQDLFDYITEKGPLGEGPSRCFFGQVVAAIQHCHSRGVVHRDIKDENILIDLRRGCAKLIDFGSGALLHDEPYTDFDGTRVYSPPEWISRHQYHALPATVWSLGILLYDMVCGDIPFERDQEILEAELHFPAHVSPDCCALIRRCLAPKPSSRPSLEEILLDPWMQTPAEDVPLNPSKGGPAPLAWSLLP

PRKCI (human) = PRKCI (human) (UniProt P41743)
Chain of PRKCI (human) (P41743 whole entry, looked up): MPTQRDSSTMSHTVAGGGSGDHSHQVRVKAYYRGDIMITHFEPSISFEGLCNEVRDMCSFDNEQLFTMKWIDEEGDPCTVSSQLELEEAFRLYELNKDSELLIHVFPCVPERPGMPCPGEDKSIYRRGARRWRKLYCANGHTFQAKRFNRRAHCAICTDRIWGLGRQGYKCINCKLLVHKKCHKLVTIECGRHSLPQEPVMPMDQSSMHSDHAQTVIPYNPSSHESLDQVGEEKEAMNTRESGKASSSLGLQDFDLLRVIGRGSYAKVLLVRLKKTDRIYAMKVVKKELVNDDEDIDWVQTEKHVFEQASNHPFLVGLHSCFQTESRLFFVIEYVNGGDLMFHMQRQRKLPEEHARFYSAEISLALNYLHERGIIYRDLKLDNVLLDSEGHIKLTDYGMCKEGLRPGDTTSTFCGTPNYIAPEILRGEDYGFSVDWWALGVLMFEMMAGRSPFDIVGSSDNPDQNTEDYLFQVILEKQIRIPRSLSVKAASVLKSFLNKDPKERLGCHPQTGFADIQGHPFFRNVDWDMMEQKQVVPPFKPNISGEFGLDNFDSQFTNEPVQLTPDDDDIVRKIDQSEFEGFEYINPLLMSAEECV

RET (human) = RET (human) (UniProt P07949)
ROCK2 (human) = ROCK2 (human) (UniProt O75116)
Chain of ROCK2 (human) (O75116 whole entry, looked up): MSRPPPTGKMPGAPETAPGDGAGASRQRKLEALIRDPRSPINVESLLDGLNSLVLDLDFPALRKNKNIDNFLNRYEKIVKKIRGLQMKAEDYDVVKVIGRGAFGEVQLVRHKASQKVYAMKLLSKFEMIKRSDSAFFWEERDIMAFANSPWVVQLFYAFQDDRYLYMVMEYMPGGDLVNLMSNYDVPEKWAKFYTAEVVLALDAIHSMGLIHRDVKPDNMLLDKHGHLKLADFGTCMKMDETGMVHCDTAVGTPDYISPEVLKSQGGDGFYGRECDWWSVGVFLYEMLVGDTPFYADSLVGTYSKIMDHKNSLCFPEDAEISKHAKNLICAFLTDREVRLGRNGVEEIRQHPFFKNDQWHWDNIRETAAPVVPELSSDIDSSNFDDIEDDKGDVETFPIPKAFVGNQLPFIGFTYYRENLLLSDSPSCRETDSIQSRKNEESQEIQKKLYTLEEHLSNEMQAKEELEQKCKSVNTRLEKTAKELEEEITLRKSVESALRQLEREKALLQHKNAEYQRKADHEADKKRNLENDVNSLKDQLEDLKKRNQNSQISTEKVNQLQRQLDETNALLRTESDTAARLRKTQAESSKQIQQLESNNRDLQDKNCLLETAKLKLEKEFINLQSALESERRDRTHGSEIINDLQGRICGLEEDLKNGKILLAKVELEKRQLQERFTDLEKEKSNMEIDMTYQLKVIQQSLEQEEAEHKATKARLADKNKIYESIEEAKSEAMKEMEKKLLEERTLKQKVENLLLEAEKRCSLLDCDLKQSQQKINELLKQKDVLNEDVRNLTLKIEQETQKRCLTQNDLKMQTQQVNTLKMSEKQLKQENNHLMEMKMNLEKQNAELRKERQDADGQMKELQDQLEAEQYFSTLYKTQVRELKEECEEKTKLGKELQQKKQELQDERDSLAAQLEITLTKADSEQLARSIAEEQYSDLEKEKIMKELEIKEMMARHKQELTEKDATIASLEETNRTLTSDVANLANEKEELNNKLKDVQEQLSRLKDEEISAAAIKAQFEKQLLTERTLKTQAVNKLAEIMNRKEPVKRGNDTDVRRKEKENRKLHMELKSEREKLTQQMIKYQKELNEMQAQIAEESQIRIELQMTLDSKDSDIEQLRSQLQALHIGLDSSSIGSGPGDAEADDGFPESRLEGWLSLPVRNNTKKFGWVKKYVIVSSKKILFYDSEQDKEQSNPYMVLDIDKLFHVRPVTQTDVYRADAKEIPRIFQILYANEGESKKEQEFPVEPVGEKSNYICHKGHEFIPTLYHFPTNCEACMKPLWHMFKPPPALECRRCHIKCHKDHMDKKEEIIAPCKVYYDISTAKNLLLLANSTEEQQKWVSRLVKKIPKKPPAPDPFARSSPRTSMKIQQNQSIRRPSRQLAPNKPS

SGK3 (human) = SGK3 (human) (UniProt Q96BR1)
Chain of SGK3 (human) (Q96BR1 whole entry, looked up): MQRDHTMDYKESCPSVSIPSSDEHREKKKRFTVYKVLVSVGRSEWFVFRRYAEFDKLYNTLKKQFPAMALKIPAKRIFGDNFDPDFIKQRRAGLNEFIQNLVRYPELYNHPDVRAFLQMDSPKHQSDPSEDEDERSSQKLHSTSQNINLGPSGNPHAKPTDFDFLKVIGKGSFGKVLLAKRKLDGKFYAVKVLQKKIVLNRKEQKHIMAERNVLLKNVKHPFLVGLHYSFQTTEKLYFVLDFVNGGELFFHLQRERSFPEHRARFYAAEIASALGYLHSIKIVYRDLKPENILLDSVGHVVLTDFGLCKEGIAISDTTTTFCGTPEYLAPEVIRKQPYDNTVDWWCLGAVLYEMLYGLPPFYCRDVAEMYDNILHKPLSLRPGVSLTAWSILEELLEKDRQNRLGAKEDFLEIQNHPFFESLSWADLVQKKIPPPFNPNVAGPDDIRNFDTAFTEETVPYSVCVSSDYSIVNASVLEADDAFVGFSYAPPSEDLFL

STK10 (human) = STK10 (human) (UniProt O94804)
Chain of STK10 (human) (O94804 whole entry, looked up): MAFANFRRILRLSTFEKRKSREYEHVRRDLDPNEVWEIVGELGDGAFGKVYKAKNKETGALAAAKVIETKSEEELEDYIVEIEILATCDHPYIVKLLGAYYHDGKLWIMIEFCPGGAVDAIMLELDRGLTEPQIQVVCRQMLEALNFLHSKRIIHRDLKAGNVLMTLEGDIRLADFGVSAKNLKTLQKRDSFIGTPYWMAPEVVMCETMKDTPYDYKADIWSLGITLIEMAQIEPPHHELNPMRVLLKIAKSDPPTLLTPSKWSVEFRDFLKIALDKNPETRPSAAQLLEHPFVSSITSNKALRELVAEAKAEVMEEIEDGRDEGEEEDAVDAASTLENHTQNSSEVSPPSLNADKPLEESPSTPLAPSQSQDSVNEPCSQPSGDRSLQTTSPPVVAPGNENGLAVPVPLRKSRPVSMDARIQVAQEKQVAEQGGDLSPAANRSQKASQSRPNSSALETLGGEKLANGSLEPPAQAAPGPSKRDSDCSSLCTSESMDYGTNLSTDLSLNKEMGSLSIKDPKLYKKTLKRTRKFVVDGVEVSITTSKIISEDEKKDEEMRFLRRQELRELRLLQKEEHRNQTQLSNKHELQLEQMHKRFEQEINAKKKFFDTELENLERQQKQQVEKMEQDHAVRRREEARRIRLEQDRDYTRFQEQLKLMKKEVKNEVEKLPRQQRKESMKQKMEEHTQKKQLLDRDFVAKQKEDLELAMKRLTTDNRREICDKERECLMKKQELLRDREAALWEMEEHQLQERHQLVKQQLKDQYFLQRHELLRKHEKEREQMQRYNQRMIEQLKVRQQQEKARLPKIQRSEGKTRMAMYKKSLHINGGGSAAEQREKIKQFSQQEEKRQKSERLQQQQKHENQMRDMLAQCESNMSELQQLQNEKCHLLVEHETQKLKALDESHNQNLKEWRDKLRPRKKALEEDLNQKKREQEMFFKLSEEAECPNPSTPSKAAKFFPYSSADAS

STK3 (human) = STK3 (human) (UniProt Q13188)
TNK2 (human) = TNK2 (human) (UniProt Q07912)
TSSK2 (human) = TSSK2 (human) (UniProt Q96PF2)
TXK (human) = TXK (human) (UniProt P42681)
ULK1 (human) = ULK1 (human) (UniProt O75385)

## COc1ccc(OC)c2c(=S)c3ccccc3[nH]c12
ABL1 (human)
  residual activity: 91.7%
ACVR1 (human)
  residual activity: 99.2%
ADRBK1 (human)
  residual activity: 92.5%
ADRBK2 (human)
  residual activity: 86.5%
BRAF (human)
  residual activity: 88.5%
CAMK1G (human)
  residual activity: 99.5%
CDC42BPB (human)
  residual activity: 106%
CDK1 CCNB1 (human)
  residual activity: 97.8%
CHUK (human)
  residual activity: 94.3%
DAPK3 (human)
  residual activity: 112%
DYRK1A (human)
  residual activity: 103%
DYRK2 (human)
  residual activity: 96.8%
EPHB3 (human)
  residual activity: 91%
ERBB2 (human)
  residual activity: 93.6%
FGR (human)
  residual activity: 90.8%
IKBKB (human)
  residual activity: 103%
ITK (human)
  residual activity: 101%
LRRK2 (human)
  residual activity: 98%
MAP2K1 (human)
  residual activity: 91.7%
NEK6 (human)
  residual activity: 101%
NEK9 (human)
  residual activity: 95.8%
NTRK1 (human)
  residual activity: 87.5%
PAK1 (human)
  residual activity: 89.2%
PDPK1 (human)
  residual activity: 94.9%
PIM2 (human)
  residual activity: 103%
PRKCI (human)
  residual activity: 99.3%
RET (human)
  residual activity: 82.8%
ROCK2 (human)
  residual activity: 90.4%
SGK3 (human)
  residual activity: 90.7%
STK10 (human)
  residual activity: 93.6%
STK3 (human)
  residual activity: 104%
TNK2 (human)
  residual activity: 96.3%
TSSK2 (human)
  residual activity: 108%
TXK (human)
  residual activity: 101%
ULK1 (human)
  residual activity: 114%

## Nc1nnc2[nH]c3ccccc3nc1-2
ABL1 (human)
  residual activity: 91.6%
ACVR1 (human)
  residual activity: 94.3%
ADRBK1 (human)
  residual activity: 101%
ADRBK2 (human)
  residual activity: 92.4%
BRAF (human)
  residual activity: 102%
CAMK1G (human)
  residual activity: 97.9%
CDC42BPB (human)
  residual activity: 100%
CDK1 CCNB1 (human)
  residual activity: 79.6%
CHUK (human)
  residual activity: 85.9%
DAPK3 (human)
  residual activity: 98.2%
DYRK1A (human)
  residual activity: 95.1%
DYRK2 (human)
  residual activity: 91.6%
EPHB3 (human)
  residual activity: 90.3%
ERBB2 (human)
  residual activity: 95.2%
FGR (human)
  residual activity: 96.3%
IKBKB (human)
  residual activity: 102%
ITK (human)
  residual activity: 101%
LRRK2 (human)
  residual activity: 90.5%
MAP2K1 (human)
  residual activity: 98.8%
NEK6 (human)
  residual activity: 95.5%
NEK9 (human)
  residual activity: 98.5%
NTRK1 (human)
  residual activity: 88.3%
PAK1 (human)
  residual activity: 97.1%
PDPK1 (human)
  residual activity: 96.8%
PIM2 (human)
  residual activity: 105%
PRKCI (human)
  residual activity: 103%
RET (human)
  residual activity: 97.1%
ROCK2 (human)
  residual activity: 93.3%
SGK3 (human)
  residual activity: 96.6%
STK10 (human)
  residual activity: 94.6%
STK3 (human)
  residual activity: 88.9%
TNK2 (human)
  residual activity: 101%
TSSK2 (human)
  residual activity: 110%
TXK (human)
  residual activity: 97.6%
ULK1 (human)
  residual activity: 106%

## O=C1Nc2ccccc2/C1=C1\Nc2ccccc2\C1=N/O
ABL1 (human)
  residual activity: 82.5%
ACVR1 (human)
  residual activity: 112%
ADRBK1 (human)
  residual activity: 89.5%
ADRBK2 (human)
  residual activity: 108%
BRAF (human)
  residual activity: 105%
CAMK1G (human)
  residual activity: 101%
CDC42BPB (human)
  residual activity: 99.5%
CDK1 CCNB1 (human)
  residual activity: 68.7%
CHUK (human)
  residual activity: 97.6%
DAPK3 (human)
  residual activity: 94.4%
DYRK1A (human)
  residual activity: 105%
DYRK2 (human)
  residual activity: 79.1%
EPHB3 (human)
  residual activity: 92.3%
ERBB2 (human)
  residual activity: 97.9%
FGR (human)
  residual activity: 35.7%
IKBKB (human)
  residual activity: 96.1%
ITK (human)
  residual activity: 53%
LRRK2 (human)
  residual activity: 91.6%
MAP2K1 (human)
  residual activity: 99.6%
NEK6 (human)
  residual activity: 92.2%
NEK9 (human)
  residual activity: 95.4%
NTRK1 (human)
  residual activity: 12.4%
PAK1 (human)
  residual activity: 86.1%
PDPK1 (human)
  residual activity: 93%
PIM2 (human)
  residual activity: 106%
PRKCI (human)
  residual activity: 92.2%
RET (human)
  residual activity: 8.05%
ROCK2 (human)
  residual activity: 98.5%
SGK3 (human)
  residual activity: 102%
STK10 (human)
  residual activity: 74%
STK3 (human)
  residual activity: 19.9%
TNK2 (human)
  residual activity: 40.6%
TSSK2 (human)
  residual activity: 97.7%
TXK (human)
  residual activity: 66.7%
ULK1 (human)
  residual activity: 78.9%

## Cn1sc(=O)n(Cc2ccccc2)c1=O
ABL1 (human)
  residual activity: 104%
ACVR1 (human)
  residual activity: 102%
ADRBK1 (human)
  residual activity: 96.7%
ADRBK2 (human)
  residual activity: 99.6%
BRAF (human)
  residual activity: 98.1%
CAMK1G (human)
  residual activity: 117%
CDC42BPB (human)
  residual activity: 96.4%
CDK1 CCNB1 (human)
  residual activity: 95.7%
CHUK (human)
  residual activity: 96.2%
DAPK3 (human)
  residual activity: 103%
DYRK1A (human)
  residual activity: 92.6%
DYRK2 (human)
  residual activity: 104%
EPHB3 (human)
  residual activity: 91.3%
ERBB2 (human)
  residual activity: 106%
FGR (human)
  residual activity: 101%
IKBKB (human)
  residual activity: 112%
ITK (human)
  residual activity: 93.2%
LRRK2 (human)
  residual activity: 91.9%
MAP2K1 (human)
  residual activity: 83.8%
NEK6 (human)
  residual activity: 102%
NEK9 (human)
  residual activity: 98.2%
NTRK1 (human)
  residual activity: 99.3%
PAK1 (human)
  residual activity: 94.1%
PDPK1 (human)
  residual activity: 95.5%
PIM2 (human)
  residual activity: 107%
PRKCI (human)
  residual activity: 95.2%
RET (human)
  residual activity: 106%
ROCK2 (human)
  residual activity: 88.8%
SGK3 (human)
  residual activity: 102%
STK10 (human)
  residual activity: 98.1%
STK3 (human)
  residual activity: 93.2%
TNK2 (human)
  residual activity: 101%
TSSK2 (human)
  residual activity: 100%
TXK (human)
  residual activity: 99.8%
ULK1 (human)
  residual activity: 98.9%
